In patent publication US20050159599A1, “Cyclic compound, process for producing the same, and pest control agent” (priority 2002, published 2005):

These molecules were tested on Spodoptera litura (assay: Insecticidal effect for Spodoptera litura by spraying treatment to host crop (Test Example 2)). Conditions: 100 ppm; sprayed on soybean; third-instar larvae of Spodoptera litura; fifth day after.
Assay type: in vivo
Method: Insecticidal Effect for Spodoptera litura by Spraying Treatment to Host Crop
A pesticidal solution, which was prepared by dissolving 5 mg of test compound (represented by the compound Nos. in the above Examples) in 0.5-ml of acetone containing Tween 20 (trade name) and then diluting it to the prescribed concentration (100 ppm) with Dain (trade name, sticker) water diluted 5000-fold, was sprayed on a soybean whose primary leaves had developed completely with spray gun in the amounts wherein the pesticidal solution dripped. After drying the pesticidal solution, two primary leaves were cut off. The leaves were put into an ice cream cup (180 ml), and ten third-instar larvae of Spodoptera litura were set free therein. The cup was left in a temperature-controlled breeding room (25° C.). On the fifth day after, the number of surviving Spodoptera litura was examined. The rate of dead pests was calculated by the following formula. rate of dead pests (%)=(number of dead pests/number of test pests)×100

Row | Compound | rate of dead pests (%)
1 | O=C(c1c(F)cccc1F)N1COCN(c2ccc(Oc3ccc(C(F)(F)F)cc3Cl)cc2F)C1=O [I-3] | 100%
2 | O=C(c1c(F)cccc1F)N1COCN(c2cc(Cl)c(OC(F)(F)C(F)F)c(Cl)c2)C1=O [I-5] | 100%
3 | O=C(c1c(F)cccc1F)N1COCN(c2cc(Cl)c(OC(F)(F)C(F)C(F)(F)F)cc2Cl)C1=O (stereo not drawn) [I-6] | 100%
4 | O=C(c1c(F)cccc1F)N1COCN(c2ccc(SC(F)(F)C(F)Cl)cc2F)C1=O (stereo not drawn) [I-7] | 100%
5 | CSc1cc(F)c(N2COCN(C(=O)c3c(F)cccc3F)C2=O)c(F)c1 [I-31] | 100%
6 | Cc1cc(SC(F)(F)F)ccc1N1COCN(C(=O)c2c(F)cccc2F)C1=O [I-68] | 100%
7 | O=C(c1c(F)cccc1F)N1COCN(c2ccc(SC(F)(F)F)c(Cl)c2)C1=O [I-77] | 100%
8 | O=C(c1c(F)cccc1F)N1COCN(c2ccc(SC(F)(F)F)c(F)c2)C1=O [I-80] | 100%
9 | Cc1c(SC(F)(F)F)ccc(N2COCN(C(=O)c3c(F)cccc3F)C2=O)c1C [I-83] | 100%
10 | Cc1cc(N2COCN(C(=O)c3c(F)cccc3F)C2=O)c(C)cc1SC(F)(F)F [I-86] | 100%
11 | Cc1cc([S+]([O-])C(F)(F)F)c(C)cc1N1COCN(C(=O)c2c(F)cccc2F)C1=O (stereo not drawn) [I-87] | 100%
12 | Cc1cc(SC(F)(F)F)c(Cl)cc1N1COCN(C(=O)c2c(F)cccc2F)C1=O [I-89] | 100%
13 | Cc1cc([S+]([O-])C(F)(F)F)c(Cl)cc1N1COCN(C(=O)c2c(F)cccc2F)C1=O (stereo not drawn) [I-90] | 100%
14 | O=C(c1c(F)cccc1F)N1COCN(c2ccc(SC(F)(F)F)c(Cl)c2Cl)C1=O [I-92] | 100%
15 | O=C(c1c(F)cccc1F)N1COCN(c2ccc(SC(F)(F)F)c(Cl)c2F)C1=O [I-95] | 100%
16 | O=C(c1c(F)cccc1F)N1COCN(c2ccc([S+]([O-])C(F)(F)F)c(Cl)c2F)C1=O (stereo not drawn) [I-96] | 100%
17 | O=C(c1c(F)cccc1F)N1COCN(c2cc(Cl)c([S+]([O-])C(F)(F)F)cc2F)C1=O (stereo not drawn) [I-99] | 100%
18 | O=C(c1c(F)cccc1F)N1COCN(c2ccc(SC(F)(F)F)c(F)c2F)C1=O [I-107] | 100%
19 | O=C(c1c(F)cccc1F)N1COCN(c2cc(F)c(SC(F)(F)F)cc2F)C1=O [I-110] | 100%

Row | Compound | rate of dead pests (%)
20 | O=C(c1c(F)cccc1F)N1COCN(c2cc(F)c(SC(F)(F)F)c(F)c2)C1=O [I-113] | 100%
21 | O=C(c1c(F)cccc1F)N1COCN(c2c(F)cc([S+]([O-])C(F)(F)F)c(F)c2F)C1=O (stereo not drawn) [I-117] | 100%
22 | Cc1cc(SC(F)(F)F)c(F)cc1N1COCN(C(=O)c2c(F)cccc2F)C1=O [I-125] | 100%
23 | CSc1cc(F)c(N2COCN(C(=O)c3c(F)cccc3Cl)C2=O)c(F)c1 [I-208] | 100%
24 | Cc1cc(N2COCN(C(=O)c3c(F)cccc3Cl)C2=O)ccc1SC(F)(F)F [I-248] | 100%
25 | O=C(c1c(F)cccc1Cl)N1COCN(c2ccc(SC(F)(F)F)c(Cl)c2)C1=O [I-254] | 100%
26 | O=C(c1c(F)cccc1Cl)N1COCN(c2ccc(SC(F)(F)F)c(F)c2)C1=O [I-257] | 100%
27 | O=C(c1c(F)cccc1Cl)N1COCN(c2ccc([S+]([O-])C(F)(F)F)c(F)c2)C1=O (stereo not drawn) [I-258] | 100%
28 | Cc1cc(SC(F)(F)F)c(Cl)cc1N1COCN(C(=O)c2c(F)cccc2Cl)C1=O [I-266] | 100%
29 | O=C(c1c(F)cccc1Cl)N1COCN(c2ccc(SC(F)(F)F)c(Cl)c2Cl)C1=O [I-269] | 100%
30 | O=C(c1c(F)cccc1Cl)N1COCN(c2ccc([S+]([O-])C(F)(F)F)c(Cl)c2Cl)C1=O (stereo not drawn) [I-270] | 100%
31 | O=C(c1c(F)cccc1Cl)N1COCN(c2ccc(SC(F)(F)F)c(Cl)c2F)C1=O [I-272] | 100%
32 | O=C(c1c(F)cccc1Cl)N1COCN(c2ccc([S+]([O-])C(F)(F)F)c(Cl)c2F)C1=O (stereo not drawn) [I-273] | 100%
33 | O=C(c1c(F)cccc1Cl)N1COCN(c2cc(Cl)c([S+]([O-])C(F)(F)F)cc2F)C1=O (stereo not drawn) [I-276] | 100%
34 | O=C(c1c(F)cccc1Cl)N1COCN(c2c(F)cc([S+]([O-])C(F)(F)F)cc2Cl)C1=O (stereo not drawn) [I-279] | 100%
35 | O=C(c1c(F)cccc1Cl)N1COCN(c2c(F)cc([S+]([O-])C(F)(F)F)cc2F)C1=O (stereo not drawn) [I-282] | 100%
36 | O=C(c1c(F)cccc1Cl)N1COCN(c2ccc(SC(F)(F)F)c(F)c2F)C1=O [I-284] | 100%
37 | O=C(c1c(F)cccc1Cl)N1COCN(c2ccc([S+]([O-])C(F)(F)F)c(F)c2F)C1=O (stereo not drawn) [I-285] | 100%
38 | O=C(c1c(F)cccc1Cl)N1COCN(c2cc(F)c(SC(F)(F)F)cc2F)C1=O [I-287] | 100%

Row | Compound | rate of dead pests (%)
39 | O=C(c1c(F)cccc1Cl)N1COCN(c2cc(F)c(SC(F)(F)F)c(F)c2)C1=O [I-290] | 100%
40 | O=C(c1c(F)cccc1Cl)N1COCN(c2c(F)cc(SC(F)(F)F)c(F)c2F)C1=O [I-293] | 100%
41 | O=C(c1c(F)cccc1Cl)N1COCN(c2c(F)cc([S+]([O-])C(F)(F)F)c(F)c2F)C1=O (stereo not drawn) [I-294] | 100%
42 | O=C(c1c(F)cccc1Cl)N1COCN(c2c(F)c(F)c(SC(F)(F)F)c(F)c2F)C1=O [I-296] | 100%
43 | Cc1c(N2COCN(C(=O)c3c(F)cccc3Cl)C2=O)ccc(SC(F)(F)F)c1Cl [I-299] | 100%
44 | Cc1c(N2COCN(C(=O)c3c(F)cccc3Cl)C2=O)ccc([S+]([O-])C(F)(F)F)c1Cl (stereo not drawn) [I-300] | 100%
45 | Cc1cc(SC(F)(F)F)c(F)cc1N1COCN(C(=O)c2c(F)cccc2Cl)C1=O [I-302] | 100%
46 | Cc1cc([S+]([O-])C(F)(F)F)c(F)cc1N1COCN(C(=O)c2c(F)cccc2Cl)C1=O (stereo not drawn) [I-303] | 100%
47 | O=C(c1c(F)cccc1Cl)N1COCN(c2ccc(SC(F)(F)C(F)(F)F)cc2F)C1=O [I-305] | 100%
48 | O=C(c1c(F)cccc1Cl)N1COCN(c2ccc(SC(F)(F)C(F)(F)C(F)(F)F)cc2F)C1=O [I-320] | 100%
49 | O=C(c1c(F)cccc1Cl)N1COCN(c2ccc(SC(F)(F)C(F)(F)C(F)(F)F)cc2Cl)C1=O [I-323] | 100%
50 | O=C(c1c(F)cccc1Cl)N1COCN(c2ccc([S+]([O-])C(F)(F)C(F)(F)C(F)(F)F)cc2Cl)C1=O (stereo not drawn) [I-324] | 100%
51 | Cc1cc(SC(F)(F)C(F)(F)C(F)(F)F)c(Cl)cc1N1COCN(C(=O)c2c(F)cccc2Cl)C1=O [I-329] | 100%
52 | Cc1cc([S+]([O-])C(F)(F)C(F)(F)C(F)(F)F)c(Cl)cc1N1COCN(C(=O)c2c(F)cccc2Cl)C1=O (stereo not drawn) [I-330] | 100%
53 | O=C(c1c(Cl)cccc1Cl)N1COCN(c2ccc(SC(F)F)cc2F)C1=O [I-395] | 100%
54 | O=C(c1c(F)cccc1F)N1CN(Cc2ccccc2)CN(c2ccc(Cl)cc2)C1=O [III-4] | 100%
55 | CC(c1ccccc1)N1CN(C(=O)c2c(F)cccc2F)C(=O)N(c2ccc(Cl)cc2)C1 (stereo not drawn) [III-14] | 100%
56 | O=C(c1c(F)cccc1F)N1CN(Cc2ccccc2)CN(c2ccc(Oc3ccc(C(F)(F)F)cc3Cl)cc2F)C1=O [III-29] | 100%

Same assay, conditions: 120 h; 100 ppm; sprayed on soybean; third-instar larvae of Spodoptera litura; fifth day after; read-out: rate of dead pests (%)

Row | Compound | pest or weed control at 100 ppm
57 | O=C(c1c(F)cccc1F)N1COCN(c2ccc(SC(F)(C(F)(F)F)C(F)(F)F)cc2F)C1=O [I-158, 3-(2,6-difluorobenzoyl)-5-[2-fluoro-4-(1,1,1,2,3,3,3-heptafluoro-2-propylthio)phenyl]tetrahydro-4H-1,3,5-oxadiazin-4-one] | 100%
58 | CN1CN(C(=O)c2c(F)cccc2F)C(=O)N(c2ccc(Cl)cc2)C1 [III-1, 1-(4-chlorophenyl)-3-(2,6-difluorobenzoyl)-5-methyltetrahydro-1,3,5-triazin-2(1H)-one] | 100%
59 | C=CCN1CN(C(=O)c2c(F)cccc2F)C(=O)N(c2ccc(Cl)cc2)C1 [III-5, 5-allyl-1-(4-chlorophenyl)-3-(2,6-difluorobenzoyl)tetrahydro-1,3,5-triazin-2 (1H)-one] | 100%
60 | O=C(c1c(F)cccc1F)N1CNCN(c2ccc(Cl)cc2)C1=O [III-6, 1-(4-chlorophenyl)-3-(2,6-difluorobenzoyl)tetrahydro-1,3,5-triazin-2(1H)-one] | 100%
61 | O=C(OCc1ccccc1)N1CN(C(=O)c2c(F)cccc2F)C(=O)N(c2ccc(Cl)cc2)C1 [III-7, 5-benzyloxycarbonyl-1-(4-chlorophenyl)-3-(2,6-difluorobenzoyl)tetrahydro-1,3,5-triazin-2 (1H)-one] | 100%
62 | O=C(OCc1ccccc1)N1CN(C(=O)c2c(F)cccc2F)C(=O)N(c2ccc(Oc3ccc(C(F)(F)F)cc3Cl)cc2F)C1 [III-22, 5-benzyloxycarbonyl-1-[4-(2-chloro-4-trifluoromethylphenoxy)-2-fluorophenyl]-3-(2,6-difluorobenzoyl)tetrahydro-1,3,5-triazin-2(1H)-one] | 100%

Same assay, conditions: Spodoptera litura, in Glycine max, 120 h, read-out: rate of dead pests (%)

Row | Compound | pest or weed control at 100 ppm
63 | O=C(c1c(F)cccc1F)N1COCN(c2ccc(SC(F)(F)C(F)(F)C(F)(F)F)cc2F)C1=O [I-143, 3-(2,6-difluorobenzoyl)-5-[2-fluoro-4-(1,1,2,2,3,3,3-heptafluoro-1-propylthio)phenyl]tetrahydro-4H-1,3,5-oxadiazin-4-one] | 100%
